Each structure is given as a SMILES string.

In this assay the test system is monocytic THP1 cells infected with HIV VSV-G pseudotyped GFP-NEF reporter virus. In words: cells. To be noted: Human immunodeficiency virus 1, THP-1, 24 h. The assay is classed as cell-based.
As a reminder, the EC50 is the concentration needed to bring the measured effect to its halfway point. Turning to `Cc1cc(/C=C/C#N)cc(C)c1Oc1nc(NC23CC(C#N)(C2)C3)nc2c1C(C)N(CCC(F)(F)F)C2=O` (stereo not shown) [Example 207, (E)-3-((4-(4-(2-cyanovinyl)-2,6-dimethylphenoxy)-5-methyl-7-oxo-6-(3,3,3-trifluoropropyl)-6,7-dihydro-5H-pyrrolo[3,4-d]pyrimidin-2-yl)amino)bicyclo[1.1.1]pentane-1-carbonitrile], the midpoint of the response, the EC50, lay at 70.3 nM.

Regarding `Cc1cc(/C=C/C#N)cc(C)c1Oc1nc(NC23CC(C#N)(C2)C3)nc2[nH]c(C)c(C)c12` [Compound 303, (E)-3-((4-(4-(2-cyanovinyl)-2,6-dimethylphenoxy)-5,6-dimethyl-7H-pyrrolo[2,3-d]pyrimidin-2-yl)amino)bicyclo[1.1.1]pentane-1-carbonitrile], a half-maximal response (EC50) required 232 nM.

As for `Cc1cc(/C=C/C#N)cc(C)c1Oc1nc(NC23CC(C#N)(C2)C3)nc2c1C(C)N(CC#N)C2=O` (stereo not shown) [Compound 315, (E)-3-((6-(cyanomethyl)-4-(4-(2-cyanovinyl)-2,6-dimethylphenoxy)-5-methyl-7-oxo-6,7-dihydro-5H-pyrrolo[3,4-d]pyrimidin-2-yl)amino)bicyclo[1.1.1]pentane-1-carbonitrile], the EC50 was 188 nM.

Compound `Cc1cc(/C=C/C#N)cc(C)c1Oc1nc(NC23CC(C#N)(C2)C3)nc2nc3n(c12)CCO3` [Compound 184, (E)-3-((4-(4-(2-cyanovinyl)-2,6-dimethylphenoxy)-6,7-dihydrooxazolo[2,3-f]purin-2-yl)amino)bicyclo[1.1.1]pentane-1-carbonitrile] yielded a half-maximal effective concentration (EC50) of 36.5 nM.

Regarding `Cc1cc(/C=C/C#N)cc(C)c1Oc1nc(NC23CC(C#N)(C2)C3)nc2c1C(C)(O)N(CC#N)C2=O` (stereo not shown) [Compound 316, (E)-3-((6-(cyanomethyl)-4-(4-(2-cyanovinyl)-2,6-dimethylphenoxy)-5-hydroxy-5-methyl-7-oxo-6,7-dihydro-5H-pyrrolo[3,4-d]pyrimidin-2-yl)amino)bicyclo[1.1.1]pentane-1-carbonitrile], a half-maximal response (EC50) required 77.5 nM.

`Cc1cc(/C=C/C#N)cc(C)c1Oc1nc(NC23CC(C#N)(C2)C3)nc2nc(Nc3ccccc3)[nH]c12` [Compound 70, (E)-3-((6-(4-(2-cyanovinyl)-2,6-dimethylphenoxy)-8-(phenylamino)-7H-purin-2-yl)amino)bicyclo[1.1.1]pentane-1-carbonitrile] registered an EC50 of 415 nM.

`Cc1cc(/C=C/C#N)cc(C)c1Oc1nc(NC23CC(C#N)(C2)C3)nc2nc(-c3cnoc3)[nH]c12` [Compound 71, (E)-3-((6-(4-(2-cyanovinyl)-2,6-dimethylphenoxy)-8-(isoxazol-4-yl)-7H-purin-2-yl)amino)bicyclo[1.1.1]pentane-1-carbonitrile] returned an EC50 of 274 nM.

Consider `Cc1cc(/C=C/C#N)cc(C)c1Oc1nc(NC23CC(C#N)(C2)C3)nc2c1c(C)nn2CCC(F)F` [Compound 103, (E)-3-((4-(4-(2-cyanovinyl)-2,6-dimethylphenoxy)-1-(3,3-difluoropropyl)-3-methyl-1H-pyrazolo[3,4-d]pyrimidin-6-yl)amino)bicyclo[1.1.1]pentane-1-carbonitrile], for which the EC50 came to 221 nM.

In the case of `Cc1cc(/C=C/C#N)cc(C)c1Oc1nc(NC23CC(C#N)(C2)C3)nc2c1C(C)N(C1COC1)C2=O` (stereo not shown) [Example 208, (E)-3-((4-(4-(2-cyanovinyl)-2,6-dimethylphenoxy)-5-methyl-6-(oxetan-3-yl)-7-oxo-6,7-dihydro-5H-pyrrolo[3,4-d]pyrimidin-2-yl)amino)bicyclo[1.1.1]pentane-1-carbonitrile], the EC50 worked out at 28.8 nM.

`Cc1cc(/C=C/C#N)cc(C)c1Oc1nc(NC23CC(C#N)(C2)C3(F)F)nc2nc3n(c12)CCCO3` [Compound 188, (E)-3-((4-(4-(2-cyanovinyl)-2,6-dimethylphenoxy)-7,8-dihydro-6H-[1,3]oxazino[2,3-f]purin-2-yl)amino)-2,2-difluorobicyclo[1.1.1]pentane-1-carbonitrile] registered a concentration for a half-maximal effect (EC50) of 70.4 nM.

Source of the values: patent US20250333424A1, “ANTIVIRAL COMPOUNDS” (Gilead Sciences, Inc., priority 2024, published 2025).
